What all share (assay): In-vitro tumor cell proliferation inhibition, MTT
Holding throughout (assay type): cell-based, human

The subject of assay [1] is malignant melanoma cell strain A375. The following applies: 72 hours. An excerpt: (§1) The object of this assay was to test the inventive compounds for the inhibitory activity of in-vitro tumor cell proliferation. The MTT (tetreamethyl-azo-zole-salt) colorimetric method was used in this assay.
(§2) Human non-small cell lung carcinoma cell strains HCC827, PC-9, H1975 (EGFR L858R/T790M mutation) and H292 (EGFR WT), and other tumor type cell strains, including human acute myelogenous leukemia cell strain MV4-11, human chronic granulocytic leukemia cell strain K562, human squamous cell carcinoma cell strain A431, human breast carcinoma cell strains MDA-MB-468 and BT 474, human colon cancer cell strains SW480, HCT116 and SW620, human liver cancer cell strain Hep G2, human gastric cancer cell strain MK-45, and human malignant melanoma cell strain A375 used in this assay were all purchased from ATCC company, USA and kept in the laboratory. All of the above-mentioned non-small cell lung carcinoma cell strains and the breast carcinoma cell strain BT 474 were cultured with a RPMI-1640 complete culture medium containing 10% fetal bovine serum, 100 U/ml penicillin and 100 μg/ml streptomycin under 5% CO2 and at 37° C. The other cell strains were cultured with a DMEM complete culture medium containing 10% fetal bovine serum (having a MV4-11 cell content of 20%), 100 U/ml penicillin and 100 μg/ml streptomycin under 5% CO2 and 37° C.
(§3) A cell suspension having a cell concentration of 1-2×10^4 cells/ml was treated with a complete cell culture solution to adjust the cell concentration, wherein the cell concentrations for HCC827 and MV4-11 were adjusted to 6×10^4 cells/ml and 1×10^5 cells/ml respectively. The cell suspension was inoculated in a 96-well plate with 200 μl cell suspension/well and cultured overnight. Next day, the supernatant was drawn off and discarded. Then, the cells were treated with the tested compounds in a gradient concentration respectively. In the meanwhile, a negative control group free of the drug substance and an isovolumetric solvent control group (having a DMSO concentration of 1%) were used. The triplicate wells were used for each of dose groups. The culturing was conducted at 37° C. under 5% CO2. After 72 hours, […] having a concentration of 5 mg/ml was added to each of wells. The culturing was further conducted for 2-4 hours. The supernatant was discarded. Then […] was added to each of wells. The contents in the well were mixed homogenously by oscillation for 15 minutes. The absorbance (A) value was measured with a microplate reader at λ=570 nm (the A value is in the direct proportion to the number of living cells) and averaged. The relative cell proliferation inhibitory rate is (A570 control-group−A570 dose-group)/A570 control-group×100%. The assay was repeated for at least three times. The data was expressed as number average. The statistical data were analyzed using t-test. P<0.05 was considered significant. The cell proliferation inhibition of the following compounds was expressed as IC50 or inhibitory rate.

For assay [2], the system named is chronic granulocytic leukemia cell strain K562. The following applies: 72 hours.
Text: as §1, §2, §3

In assay [3] the test system is colon cancer cell strain SW620. The following applies: 72 hours.
Text: as §1, §2, §3

In assay [4] the test system is gastric cancer cell strain MK-45. The following applies: 72 hours, read-out: MK45 (IC50).
Text: as §1, §2, §3

Assay [5] concerns breast carcinoma cell strain BT474. The following applies: 72 hours.
Text: as §1, §2, §3

The subject of assay [6] is breast carcinoma cell strain MDA-MB-468. The following applies: 72 hours.
Text: as §1, §2, §3

Assay [7] has as its system colon cancer cell strain HCT116. The following applies: 72 hours.
Text: as §1, §2, §3

Assay [8] concerns squamous cell carcinoma cell strain A431. The following applies: 72 hours.
Text: as §1, §2, §3

The test system of assay [9] is colon cancer cell strain SW480. The following applies: 72 hours.
Text: as §1, §2, §3

Assay [10] concerns liver cancer cell strain Hep G2. The following applies: 72 hours, read-out: HEPG2 (IC50).
Text: as §1, §2, §3

Assay [11] relates to acute myelogenous leukemia cell strain MV4-11. The following applies: 72 hours.
Text: as §1, §2, §3

Assay [12] concerns non-small cell lung carcinoma cell strain H1975 (EGFR L858R/T790M mutation). The following applies: 72 hours. Here is the method: as §1
(§4) All of the above-mentioned non-small cell lung carcinoma cell strains and the breast carcinoma cell strain BT 474 were cultured with a RPMI-1640 complete culture medium containing 10% fetal bovine serum, 100 U/ml penicillin and 100 μg/ml streptomycin under 5% CO2 and at 37° C. The other cell strains were cultured with a DMEM complete culture medium containing 10% fetal bovine serum (having a MV4-11 cell content of 20%), 100 U/ml penicillin and 100 μg/ml streptomycin under 5% CO2 and 37° C.
as §3

Assay [13] has as its system non-small cell lung carcinoma cell strain H292 (EGFR WT). The following applies: 72 hours. The procedure:
as §1, §4, §3

Assay [14] relates to non-small cell lung carcinoma cell strain PC-9 (EGFR delE746-A750 deletion mutation). The following applies: 72 hours. The procedure:
as §1, §4, §3

For assay [15], the system named is non-small cell lung carcinoma cell strain HCC827. The following applies: 72 hours. The procedure: as §1, §4, §3

Where only a bound is given, the exact number is not on record here.

In US9096601B2 (CSPC Zhongqi Pharmaceutical Technology (Shijiazhuang) Co., …, priority 2010, dated 2015) one finds IC50 data, which are given here for ten compounds.

As to `Cc1nc(Nc2ccc(N3CCN(C)CC3)cc2)nc2c1nc(Nc1ccccc1)n2C(C)C` [Compounds 8-34], the half-maximal inhibitory concentration (IC50) (as a rule, the concentration at which inhibition is half-maximal) is 6570 nM in assay [1]; 1600 nM in assay [2]; greater than 10000 nM in [3]; 1660 nM in assay [4]; 2630 nM in assay [5]; 3260 nM in assay [6]. In addition, the IC50 in [7] was 10500 nM; in assay [8], 2570 nM; in assay [9] it was 9950 nM; in assay [10] it was 8460 nM; in assay [11] it was 125 nM; in assay [12], 6310 nM. In addition, the IC50 in assay [13] is 1230 nM; in assay [14] it was 420 nM; in assay [15], 63.1 nM.
With `CN1CCN(c2ccc(Nc3ncc4nc(Nc5ccc(F)c(Cl)c5)n(C5CCCC5)c4n3)cc2)CC1` [Compounds 8-35], the concentration for half-maximal inhibition (IC50) in assay [1] amounted to 3250 nM; in assay [2], 232 nM; in assay [3], 2300 nM; in assay [4], 1110 nM; in assay [5], 192 nM; in assay [6], 1920 nM. In addition, the half-maximal inhibitory concentration (IC50) in [7] amounted to 676 nM; in assay [8], 635 nM; in assay [9] it was 5930 nM; in assay [10], 4340 nM; in [11] it was 135 nM; in assay [12], 1520 nM. Besides, the concentration for half-maximal inhibition (IC50) was 20.3 nM in assay [13], 1.5 nM in [14] and 0.2 nM in [15].
As to `CN1CCN(NC(=O)c2ccc(Nc3ncc4nc(Nc5cccnc5)n(C5CCCC5)c4n3)cc2)CC1` [Compounds 8-37], the IC50 was greater than 10000 nM in assay [1]; 888 nM in assay [2]; greater than 10000 nM in assay [3]; greater than 10000 nM in assay [4]; 4520 nM in [5]; greater than 10000 nM in assay [6]. In addition, the 50% inhibitory concentration (IC50) is greater than 10000 nM in [7]; greater than 10000 nM in assay [8]; greater than 10000 nM in [9]; greater than 10000 nM in assay [10]; 102 nM in [11]; greater than 10000 nM in assay [12]. In addition, the 50% inhibitory concentration (IC50) was determined as 5850 nM in assay [13], 348 nM in [14] and 130 nM in assay [15].
For `CC(C)n1c(Nc2ccc(Cl)nc2)nc2cnc(Nc3ccc(N4CCN(C)CC4)cc3)nc21` [Compounds 8-41], the IC50 in assay [1] is greater than 10000 nM; in assay [2] it was 146 nM; in assay [3], 2140 nM; in [4] it was 3340 nM; in assay [5], 2090 nM; in assay [6] it was 4490 nM. For the same compound, the IC50 in assay [7] stood at 5430 nM; in assay [8] it was 2740 nM; in [9], 5400 nM; in assay [10] it was 2200 nM; in [11], 1970 nM; in assay [12], 501 nM. The concentration for half-maximal inhibition (IC50) stood at 268 nM in assay [13], 209 nM in assay [14] and 16.5 nM in [15].
With `CC(C)n1c(Nc2ccc(OCc3cccc(F)c3)c(Cl)c2)nc2cnc(Nc3ccc(N4CCOCC4)cc3)nc21` [Compounds 8-42], the half-inhibitory concentration (IC50) is 498 nM in [1]; 922 nM in assay [2]; greater than 10000 nM in [3]; 5100 nM in assay [4]; 5100 nM in assay [5]; 1700 nM in assay [6]. Besides, the half-maximal inhibitory concentration (IC50) in assay [7] is greater than 10000 nM; in assay [8], 2240 nM; in assay [9], greater than 10000 nM; in [10], greater than 10000 nM; in assay [11], 6640 nM; in [12], greater than 10000 nM. In addition, the 50% inhibitory concentration (IC50) came to 673 nM in [13], 3320 nM in assay [14] and 4260 nM in [15].
`CN1CCN(c2ccc(Nc3ncc4nc(Nc5ccc(Br)cc5)n(C5CCCC5)c4n3)cc2)CC1` [Compounds 8-43]: the IC50 worked out at 1910 nM in assay [1]; 122 nM in assay [2]; 5750 nM in assay [3]; 234 nM in [4]; 1830 nM in assay [5]; 1030 nM in assay [6]. Moreover, the 50% inhibitory concentration (IC50) worked out at 2570 nM in [7]; 484 nM in [8]; 5750 nM in [9]; 5930 nM in [10]; 21.2 nM in [11]; 231 nM in assay [12]. In addition, the IC50 in [13] was 102 nM; in assay [14], 51.9 nM; in assay [15], 0.3 nM.
Regarding `CN1CCN(c2ccc(Nc3ncc4nc(Nc5cccc([N+](=O)[O-])c5)n(C5CCCC5)c4n3)cc2)CC1` [Compounds 8-44], the IC50 in [1] came to 1740 nM; in assay [2] it was 96.5 nM; in assay [3], 2510 nM; in assay [4] it was 1350 nM; in assay [5], 682 nM; in assay [6], 2670 nM. Moreover, the half-inhibitory concentration (IC50) is greater than 10000 nM in assay [7]; 409 nM in assay [8]; 6160 nM in assay [9]; greater than 10000 nM in assay [10]; 1140 nM in assay [11]; 695 nM in assay [12]. Besides, the results for the half-inhibitory concentration (IC50) in [13], in [14] and in assay [15] were 2.9 nM, 1.5 nM and 0.3 nM, respectively.
With `CN1CCN(c2ccc(Nc3ncc4nc(NCc5ccccc5)n(C5CCCC5)c4n3)cc2)CC1` [Compounds 8-45], the IC50 in assay [1] is 9260 nM; in assay [2], 218 nM; in assay [3], 4970 nM; in [4], 3740 nM; in assay [5], 870 nM; in assay [6] it was 2870 nM. Moreover, the IC50 in assay [7] was 7080 nM; in assay [8], 1890 nM; in [9] it was 7750 nM; in [10], greater than 10000 nM; in assay [11], 59.4 nM; in [12], 1140 nM. For the same compound, the results for the IC50 in assay [13], in assay [14] and in assay [15] were 13.9 nM, 9.7 nM and 0.2 nM, respectively.
Consider `C#Cc1cccc(Nc2nc3cnc(Nc4ccc(N5CCN(C)CC5)cc4)nc3n2C2CCCC2)c1` [Compounds 8-46], for which the IC50 in assay [1] was 400 nM; in [2], 250 nM; in assay [3] it was 3620 nM; in assay [4] it was 417 nM; in assay [5], 792 nM; in assay [6], 751 nM. The IC50 in assay [7] is 9070 nM; in [8], 426 nM; in [9], 4010 nM; in assay [10], greater than 10000 nM; in assay [11], 4690 nM; in assay [12], 770 nM. Also, the IC50 was greater than 10000 nM in assay [13], 3.5 nM in [14] and 0.3 nM in [15].
`CN1CCN(c2ccc(Nc3ncc4nc(Nc5ccc(Br)cc5F)n(C5CCCC5)c4n3)cc2)CC1` [Compounds 8-47]: the IC50 in assay [1] came out at 1570 nM; in assay [2], 97.2 nM; in [3] it was 4950 nM; in assay [4], 1180 nM; in assay [5] it was 554 nM; in assay [6], 3190 nM. For the same compound, the IC50 in [7] was found to be 6090 nM; in [8], 299 nM; in assay [9], 5530 nM; in [10] it was 8460 nM; in assay [11], 224 nM; in assay [12] it was 884 nM. For the same compound, the figures for the IC50 in assay [13], in assay [14] and in assay [15] were 44.2 nM, 16.3 nM and 0.3 nM, respectively.
